Test results reported in the NIST ThermoML archive (doi:10.1016/j.fluid.2011.06.011).
± gives the expanded uncertainty stated by the source.

Experiment: xn = mol fraction of the nth substance listed
Conditions: Liquid; for speed of sound: Sing-around technique in a fixed-path interferometer; for mass density: Vibrating tube method

C=CC(C)(O)CCC=C(C)C (stereo not drawn) [3,7-dimethyl-1,6-octadien-3-ol] + CCO
Conditions | mass density, 313.15 K [kg/m3] | mass density, 328.15 K [kg/m3] | speed of sound, 313.15 K [m/s] | speed of sound, 328.15 K [m/s]
101 kPa, x1 = 0.0493 | – | – | – | 1070.8 ± 0.7
101 kPa, x1 = 0.0506 | 784.31 ± 0.13 | 770.91 ± 0.14 | – | –
101 kPa, x1 = 0.0507 | – | – | 1122.4 ± 0.7 | –
101 kPa, x1 = 0.0996 | – | – | 1142.3 ± 0.7 | –
101 kPa, x1 = 0.1008 | 794.24 ± 0.13 | 780.72 ± 0.14 | – | 1095.1 ± 0.7
101 kPa, x1 = 0.1969 | 808.41 ± 0.14 | 795.22 ± 0.14 | 1177.2 ± 0.8 | 1125 ± 0.8
101 kPa, x1 = 0.2884 | 818.41 ± 0.16 | 805.21 ± 0.16 | – | –
101 kPa, x1 = 0.2959 | – | – | 1200.7 ± 1 | 1147.3 ± 0.9
101 kPa, x1 = 0.3918 | – | – | 1218.2 ± 1.1 | –
101 kPa, x1 = 0.3957 | 826.66 ± 0.19 | 813.44 ± 0.19 | – | 1163.9 ± 1.1
101 kPa, x1 = 0.4803 | 831.36 ± 0.23 | 818.17 ± 0.23 | – | –
101 kPa, x1 = 0.4834 | – | – | – | 1173.9 ± 1.2
101 kPa, x1 = 0.4854 | – | – | 1230.3 ± 1.2 | –
101 kPa, x1 = 0.593 | 835.94 ± 0.29 | 822.82 ± 0.29 | 1240 ± 1.4 | 1185.1 ± 1.4
101 kPa, x1 = 0.6838 | 838.63 ± 0.34 | 825.57 ± 0.34 | 1247.1 ± 1.5 | 1193.8 ± 1.5
101 kPa, x1 = 0.7832 | – | – | 1252.8 ± 1.7 | 1199 ± 1.7
101 kPa, x1 = 0.8438 | 841.86 ± 0.47 | 828.96 ± 0.46 | – | –
101 kPa, x1 = 0.8633 | – | – | 1257 ± 1.8 | 1203.2 ± 1.8
101 kPa, x1 = 0.8941 | 842.75 ± 0.51 | 829.77 ± 0.5 | – | –
101 kPa, x1 = 0.9286 | 843.29 ± 0.54 | 830.31 ± 0.53 | 1259.5 ± 1.9 | 1206.3 ± 1.9
101 kPa, x1 = 1 | 844.29 ± 0.61 | 831.31 ± 0.6 | 1260.8 ± 2 | 1207.6 ± 2
20000 kPa, x1 = 0.0511 | 801 ± 0.6 | 789.2 ± 0.6 | – | –
20000 kPa, x1 = 0.1003 | 809.9 ± 0.6 | 798.3 ± 0.6 | – | –
20000 kPa, x1 = 0.1962 | 823 ± 0.6 | 811.4 ± 0.6 | – | –
20000 kPa, x1 = 0.2989 | 833.1 ± 0.6 | 821.4 ± 0.6 | – | –
20000 kPa, x1 = 0.3996 | 840 ± 0.6 | 828.3 ± 0.6 | – | –
20000 kPa, x1 = 0.5015 | 845.2 ± 0.6 | 833.5 ± 0.6 | – | –
20000 kPa, x1 = 0.5982 | 848.8 ± 0.6 | 837.1 ± 0.6 | – | –
20000 kPa, x1 = 0.6898 | 851.6 ± 0.7 | 839.9 ± 0.7 | – | –
20000 kPa, x1 = 0.7929 | 854.1 ± 0.7 | 842.5 ± 0.7 | – | –
20000 kPa, x1 = 0.8885 | 856 ± 0.8 | 844.4 ± 0.8 | – | –
20000 kPa, x1 = 0.9435 | 856.9 ± 0.8 | 845.3 ± 0.8 | – | –
20000 kPa, x1 = 1 | 857.6 ± 0.8 | 846 ± 0.8 | – | –
25000 kPa, x1 = 0.0511 | 804.8 ± 0.6 | 793.4 ± 0.6 | – | –
25000 kPa, x1 = 0.1003 | 813.7 ± 0.6 | 802.2 ± 0.6 | – | –
25000 kPa, x1 = 0.1962 | 826.7 ± 0.6 | 815.2 ± 0.6 | – | –
25000 kPa, x1 = 0.2989 | 836.6 ± 0.6 | 825.1 ± 0.6 | – | –
25000 kPa, x1 = 0.3996 | 843.5 ± 0.6 | 831.9 ± 0.6 | – | –
25000 kPa, x1 = 0.5015 | 848.6 ± 0.6 | 837 ± 0.6 | – | –
25000 kPa, x1 = 0.5982 | 852.2 ± 0.6 | 840.6 ± 0.7 | – | –
25000 kPa, x1 = 0.6898 | 854.9 ± 0.7 | 843.4 ± 0.7 | – | –
25000 kPa, x1 = 0.7929 | 857.4 ± 0.7 | 845.9 ± 0.7 | – | –
25000 kPa, x1 = 0.8885 | 859.3 ± 0.8 | 847.8 ± 0.8 | – | –
25000 kPa, x1 = 0.9435 | 860.1 ± 0.8 | 848.6 ± 0.8 | – | –
25000 kPa, x1 = 1 | 860.9 ± 0.9 | 849.3 ± 0.9 | – | –
30000 kPa, x1 = 0.0511 | 808.5 ± 0.6 | 797.1 ± 0.6 | – | –
30000 kPa, x1 = 0.1003 | 817.2 ± 0.6 | 806 ± 0.6 | – | –
30000 kPa, x1 = 0.1962 | 830.1 ± 0.6 | 818.8 ± 0.6 | – | –
30000 kPa, x1 = 0.2989 | 839.9 ± 0.6 | 828.6 ± 0.6 | – | –
30000 kPa, x1 = 0.3996 | 846.7 ± 0.6 | 835.3 ± 0.6 | – | –
30000 kPa, x1 = 0.5015 | 851.7 ± 0.6 | 840.4 ± 0.6 | – | –
30000 kPa, x1 = 0.5982 | 855.3 ± 0.7 | 843.9 ± 0.7 | – | –
30000 kPa, x1 = 0.6898 | 858 ± 0.7 | 846.7 ± 0.7 | – | –
30000 kPa, x1 = 0.7929 | 860.5 ± 0.7 | 849.2 ± 0.8 | – | –
30000 kPa, x1 = 0.8885 | 862.3 ± 0.8 | 851 ± 0.8 | – | –
30000 kPa, x1 = 0.9435 | 863.1 ± 0.8 | 851.9 ± 0.8 | – | –
30000 kPa, x1 = 1 | 863.9 ± 0.9 | 852.6 ± 0.9 | – | –
35000 kPa, x1 = 0.0511 | 812 ± 0.6 | 800.7 ± 0.6 | – | –
35000 kPa, x1 = 0.1003 | 820.6 ± 0.6 | 809.6 ± 0.6 | – | –
35000 kPa, x1 = 0.1962 | 833.3 ± 0.6 | 822.3 ± 0.6 | – | –
35000 kPa, x1 = 0.2989 | 843 ± 0.6 | 832 ± 0.6 | – | –
35000 kPa, x1 = 0.3996 | 849.6 ± 0.6 | 838.6 ± 0.6 | – | –
35000 kPa, x1 = 0.5015 | 854.7 ± 0.6 | 843.6 ± 0.7 | – | –
35000 kPa, x1 = 0.5982 | 858.3 ± 0.7 | 847.2 ± 0.7 | – | –
35000 kPa, x1 = 0.6898 | 861 ± 0.7 | 849.9 ± 0.7 | – | –
35000 kPa, x1 = 0.7929 | 863.4 ± 0.8 | 852.3 ± 0.8 | – | –
35000 kPa, x1 = 0.8885 | 865.3 ± 0.8 | 854.2 ± 0.8 | – | –
35000 kPa, x1 = 0.9435 | 866.1 ± 0.9 | 855 ± 0.9 | – | –
35000 kPa, x1 = 1 | 866.8 ± 0.9 | 855.7 ± 0.9 | – | –
40000 kPa, x1 = 0.0511 | 815.4 ± 0.6 | 804.6 ± 0.6 | – | –
40000 kPa, x1 = 0.1003 | 824 ± 0.6 | 813.1 ± 0.6 | – | –
40000 kPa, x1 = 0.1962 | 836.5 ± 0.6 | 825.6 ± 0.6 | – | –
40000 kPa, x1 = 0.2989 | 846.2 ± 0.6 | 835.2 ± 0.6 | – | –
40000 kPa, x1 = 0.3996 | 852.8 ± 0.6 | 841.8 ± 0.6 | – | –
40000 kPa, x1 = 0.5015 | 857.8 ± 0.7 | 846.7 ± 0.7 | – | –
40000 kPa, x1 = 0.5982 | 861.3 ± 0.7 | 850.3 ± 0.7 | – | –
40000 kPa, x1 = 0.6898 | 864 ± 0.7 | 853 ± 0.7 | – | –
40000 kPa, x1 = 0.7929 | 866.3 ± 0.8 | 855.4 ± 0.8 | – | –
40000 kPa, x1 = 0.8885 | 868.2 ± 0.8 | 857.2 ± 0.8 | – | –
40000 kPa, x1 = 0.9435 | 869 ± 0.9 | 858.1 ± 0.9 | – | –
40000 kPa, x1 = 1 | 869.7 ± 0.9 | 858.8 ± 0.9 | – | –
